The record followed here is patent publication US8956824B2, “Methods for identifying allosteric modulators of ship polypeptides” (British Columbia Cancer Agency Branch, priority 2006, dated 2015).

Entries after “also recorded” stand apart in the source; their conditions may differ.

The target in one test is T1, SHIP1 C2 domain (Mus musculus, UniProt Q9ES52).
T1 construct: Recombinant SHIP1 C2 domain (amino acid residues 725 to 863); made in house; host or cells: E. coli, pET28C
T1 sequence (Q9ES52 725-863): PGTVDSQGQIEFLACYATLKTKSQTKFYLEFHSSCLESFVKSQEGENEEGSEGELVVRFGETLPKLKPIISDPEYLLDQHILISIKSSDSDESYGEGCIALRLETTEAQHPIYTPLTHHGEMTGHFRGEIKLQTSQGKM
Kind of test: Protein lipid overlay assay, C2 domain. The note with it: 200 μM AQX-MN100, 30 min pre-incubation. The test is classed as binding. As for the experimental part: Protein Lipid Overlay Assays Protein Lipid Overlay assays were performed essentially as described (23) with minor modifications. Lyophilized phosphatidylinositol-3,4-bisphosphate diC16 (PIP2, Echelon Biosciences, Salt Lake City, Utah) was reconstituted in a 2:1.8 solution of methanol and water. PVDF membranes (Millipore, Missisauga, Ont) were initially wetted in methanol for 1 minute, and washed 3×5 min with water, and gently agitated in TBST buffer (20 mM Tris pH 7.5, 0.15 M NaCl (TBS) with 0.05% Tween 20) at 23° C. overnight. The treated membranes were air-dried and dilutions of reconstituted lipids were spotted in 1 μl aliquots to give the indicated amount of PIP2 per membrane spot. The membranes were dried completely and blocked with blocking buffer (3% BSA in TBS with 0.05% NaN3) for 1 h at 23° C. on a gentle shaker. Purified, recombinant C2 domain was diluted into blocking buffer (5 μM final) and treated with 200 μM AQX-MN100 or EtOH control for 30 min at 23° C. prior to overnight incubation with the PIP2 spotted membranes. The membranes were washed 10 times over 50 min in TBST buffer at 23° C. and were incubated with anti-His6 mouse IgG (Qiagen, Missisauga, Ont) for 1 hour at 23° C. with gentle rocking. […] The membranes were washed 3 times in TBST over 15 min at 23° C. and the bound proteins were detected and quantified on a Li-Cor Odyssey scanner (Lincoln, Nebr.). […]

For test [1], the target named is T2, C2 domain deleted (ΔC2) SHIP1 enzyme (Mus musculus, UniProt Q9ES52, DEL725-860/G861A/K862A/M863A).
T2 construct: Full length, wild-type SHIP1 enzyme (wt) or SHIP1 enzyme in which the PH or C2 domains were deleted; made in house; 293T cells are stated only for the wild-type enzyme
T2 sequence (Q9ES52 with tags, fused parts or gaps DEL725-860/G861A/K862A/M863A limits assumed): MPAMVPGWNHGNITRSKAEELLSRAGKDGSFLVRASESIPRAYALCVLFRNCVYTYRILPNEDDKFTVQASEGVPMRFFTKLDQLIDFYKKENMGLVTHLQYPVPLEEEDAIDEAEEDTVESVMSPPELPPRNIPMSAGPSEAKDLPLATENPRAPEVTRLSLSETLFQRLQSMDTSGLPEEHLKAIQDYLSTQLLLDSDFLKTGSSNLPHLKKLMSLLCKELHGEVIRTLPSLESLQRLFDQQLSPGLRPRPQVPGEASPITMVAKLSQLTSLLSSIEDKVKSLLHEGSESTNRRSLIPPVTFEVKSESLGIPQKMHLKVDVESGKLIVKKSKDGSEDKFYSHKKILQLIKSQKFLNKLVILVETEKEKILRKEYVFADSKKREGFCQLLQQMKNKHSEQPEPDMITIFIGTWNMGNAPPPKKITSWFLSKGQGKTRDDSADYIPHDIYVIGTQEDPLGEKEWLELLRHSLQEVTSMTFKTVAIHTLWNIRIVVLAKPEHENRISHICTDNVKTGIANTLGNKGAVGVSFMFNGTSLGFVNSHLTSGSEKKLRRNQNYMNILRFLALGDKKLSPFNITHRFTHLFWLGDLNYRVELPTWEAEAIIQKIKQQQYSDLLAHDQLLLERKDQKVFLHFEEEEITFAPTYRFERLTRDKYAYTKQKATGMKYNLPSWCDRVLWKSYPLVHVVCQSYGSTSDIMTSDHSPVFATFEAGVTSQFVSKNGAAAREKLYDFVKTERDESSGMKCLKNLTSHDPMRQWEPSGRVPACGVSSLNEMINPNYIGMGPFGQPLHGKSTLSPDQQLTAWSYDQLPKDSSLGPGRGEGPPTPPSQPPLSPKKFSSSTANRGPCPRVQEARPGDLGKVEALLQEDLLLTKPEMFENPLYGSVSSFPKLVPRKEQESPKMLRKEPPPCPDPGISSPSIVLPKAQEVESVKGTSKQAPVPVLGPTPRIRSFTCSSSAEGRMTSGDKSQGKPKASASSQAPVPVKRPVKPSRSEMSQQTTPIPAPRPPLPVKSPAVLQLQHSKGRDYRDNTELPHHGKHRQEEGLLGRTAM
As to the kind of experiment: Scintillation proximity assay, ΔC2 SHIP1. It is filed as binding. The note with it: 5 μCi. The procedure: Scintillation Proximity Assays AQX-MN100 was radiolabeled with tritium by GE Healthcare (Piscataway, N.J.) to a specific activity of 42 Ci/mmole. Copper chelate (His-Tag) YSi YSi SPA Scintillation Beads (GE Healthcare ,Piscataway, NJ) were diluted in 0.25% BSA/TBS to 1.5 mg/mL and recombinant, His6-tagged protein added at the indicated concentrations: wild-type (1 pM), ΔC2 SHIP enzyme (1 pM) or C2 domain (10 nM). Protein was allowed to bind 1 h at 23° C., and 250 μg of beads were aliquoted per well of a 96-well plate. 5 μCi of [3H]-AQX-MN100 was added per well, the plate gently agitated for 30 min and the amount of bead associated radioactivity quantified by counting in a Wallac BETAPLATE™ plate scintillation counter. Results are representative of 3 independent experiments.
(SPA uses beads or plates that emit light when radiolabelled molecules are held near them.)

The subject of test [2] is SHIP1+/+ and SHIP1−/− BMMCs. Kind of test: Intracellular signaling after FcεR1 crosslinking in BMMCs (immunoblot). The test is classed as cell-based, mouse. The note with it: 10 μg/ml, 30 min; 20 ng/ml DNP-HSA 5 min. The procedure:
Stimulation of BMMCs by FcεR1 crosslinking. SHIP1+/+ and SHIP1−/− BMMCs were pre-loaded overnight in BMMC medium lacking IL-3 with 0.1 μg/ml anti-DNP IgE (SPE-7, Sigma, Oakville, Ont). For calcium flux measurements, the cells were incubated with 2 μM fura 2-acetoxymethyl ester (Molecular Probes, Eugene, Oreg.) in Tyrode's buffer at 23° C. for 45 min. The cells were then washed and incubated in the presence of vehicle control, LY294002 or AQX-016A 30 min prior to stimulation with the indicated concentration of DNP-human serum albumin (DNP-HSA). Calcium influx was then monitored by spectrofluorometry as described previously (19). Experiments were repeated at least 3 times. For analysis of intracellular signaling, cells were pre-loaded with anti-DNP IgE as above, pre-treated with AQX-016A or buffer control for 30 min at 37° C. and stimulated with 20 ng/ml DNP-HSA for 5 min. Total cell lysates were then prepared and analyzed for phospho-PKB, phospho-p38MAPK, phospho-MAPK, Grb-2 (Cell Signalling, Mississauga, Ont) and SHIP1 (18) by immunoblot analysis as described previously (20). Results are representative of 3 independent experiments.
(A western blot detects proteins with antibodies after separation by electrophoresis.)

As for `Cc1cc(O)cc2c1[C@]1(C)CC[C@H]3C(C)(C)CCC[C@]3(C)[C@H]1C2` [AQX-MN100], at SHIP1 C2 domain, the “inhibition of C2 domain binding to phosphatidylinositol lipid (PI-3,4-P2 / PIP3)” value is “could compete with PI-3,4-P2 for binding; also recorded: inhibits the binding of the C2; also recorded: is inhibited”. For the same compound, in test [1], the “binding of [3H]-AQX-MN100 to SHIP1 lacking its C2 domain” value is “C2 domain is required for SHIP1 to bind; also recorded: requires the C2 domain to bind”.

Regarding `Cc1cc(O)c(O)c2c1[C@]1(C)CC[C@H]3C(C)(C)CCC[C@]3(C)[C@H]1C2` [AQX-016A], the “phosphorylation of PKB, p38MAPK and ERK, SHIP1+/+ vs SHIP1−/− BMMCs” value in test [2] was “inhibited the phosphorylation of PKB, p38MAPK and ERK in SHIP1+/+ but not in SHIP1−/−”.
